The text below walks through data of US20240208968A1, “ALPHA V BETA 6 AND ALPHA V BETA 1 INTEGRIN INHIBITORS AND USES THEREOF” (DiCE Molecules SV, Inc., priority 2021, published 2024).

For one assay, the target named is αvβ1 (Homo sapiens, UniProt P05556+P06756). Briefly: Solid Phase Integrin αvβ1 Assay. In kind it is binding. A digest of the protocol:
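Compound competes for αvβ1 binding to immobilized TGFb1-LAP (1 µg/mL coat) in Mn2+ (1 mM MnCl2), 2% BSA binding buffer over 90 min at room temperature, integrin added at 0.2 µg/mL. Read-out: streptavidin-HRP/TMB; IC50 from Levenberg-Marquardt four-parameter fit.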

The target of another assay is αvβ6 (Homo sapiens, UniProt P06756+P18564). Put plainly: Solid Phase Integrin αvβ6 Assay. The format is binding. Summed up: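 Inhibition of αvβ6 binding to immobilized recombinant TGFb1-LAP (1 μg/mL coating), 1 h at room temperature with 1 mM MnCl2 in BSA/TBST buffer, integrin diluted to 0.2 μg/mL before addition. Streptavidin-HRP/TMB read-out; four-parameter logistic fitting gave IC50.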
Chain of αvβ6 (P06756 31-992 limits assumed): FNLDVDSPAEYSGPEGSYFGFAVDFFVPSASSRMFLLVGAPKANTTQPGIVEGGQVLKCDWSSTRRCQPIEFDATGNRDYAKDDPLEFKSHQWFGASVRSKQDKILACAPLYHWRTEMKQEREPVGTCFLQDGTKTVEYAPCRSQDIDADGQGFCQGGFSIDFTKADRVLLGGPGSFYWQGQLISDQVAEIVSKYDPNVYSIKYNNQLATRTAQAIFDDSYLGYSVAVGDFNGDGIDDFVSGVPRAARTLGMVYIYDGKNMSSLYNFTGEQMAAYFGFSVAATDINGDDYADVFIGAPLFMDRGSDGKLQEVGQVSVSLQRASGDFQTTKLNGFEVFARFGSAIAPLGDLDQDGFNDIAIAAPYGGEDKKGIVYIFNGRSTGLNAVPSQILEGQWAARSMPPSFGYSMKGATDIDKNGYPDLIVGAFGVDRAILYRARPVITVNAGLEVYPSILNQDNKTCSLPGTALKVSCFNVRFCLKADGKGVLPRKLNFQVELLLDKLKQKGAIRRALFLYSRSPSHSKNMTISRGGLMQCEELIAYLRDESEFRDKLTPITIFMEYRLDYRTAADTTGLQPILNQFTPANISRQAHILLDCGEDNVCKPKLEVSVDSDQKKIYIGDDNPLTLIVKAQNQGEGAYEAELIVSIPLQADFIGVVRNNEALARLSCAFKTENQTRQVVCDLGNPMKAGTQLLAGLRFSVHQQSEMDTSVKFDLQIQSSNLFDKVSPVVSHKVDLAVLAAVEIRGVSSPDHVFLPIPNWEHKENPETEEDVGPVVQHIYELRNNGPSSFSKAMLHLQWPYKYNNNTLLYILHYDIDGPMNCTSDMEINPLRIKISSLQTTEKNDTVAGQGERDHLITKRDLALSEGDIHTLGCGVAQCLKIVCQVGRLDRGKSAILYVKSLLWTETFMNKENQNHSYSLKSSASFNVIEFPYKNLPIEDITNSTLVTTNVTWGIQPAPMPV
Chain of αvβ6 (P18564 22-707 limits assumed): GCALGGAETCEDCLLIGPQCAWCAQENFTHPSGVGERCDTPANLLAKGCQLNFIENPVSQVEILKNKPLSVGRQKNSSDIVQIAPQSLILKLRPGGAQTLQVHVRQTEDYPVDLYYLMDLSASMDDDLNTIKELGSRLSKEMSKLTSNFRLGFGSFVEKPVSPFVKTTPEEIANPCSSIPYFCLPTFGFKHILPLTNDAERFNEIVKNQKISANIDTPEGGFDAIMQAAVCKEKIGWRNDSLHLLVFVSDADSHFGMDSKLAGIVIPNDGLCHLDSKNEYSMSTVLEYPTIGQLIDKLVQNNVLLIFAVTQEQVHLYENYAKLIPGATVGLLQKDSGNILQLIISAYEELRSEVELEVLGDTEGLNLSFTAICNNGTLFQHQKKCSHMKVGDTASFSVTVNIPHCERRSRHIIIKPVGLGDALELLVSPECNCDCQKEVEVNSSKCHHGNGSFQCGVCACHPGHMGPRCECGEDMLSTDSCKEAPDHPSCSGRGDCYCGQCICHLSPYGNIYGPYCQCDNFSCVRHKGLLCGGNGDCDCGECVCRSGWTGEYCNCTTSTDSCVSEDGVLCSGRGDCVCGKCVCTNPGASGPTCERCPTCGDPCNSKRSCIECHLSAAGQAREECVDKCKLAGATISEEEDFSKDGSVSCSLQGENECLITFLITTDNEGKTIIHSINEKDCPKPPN

Molecules are shown by their SMILES. pIC50: −log10 of the molar value. Where only a bound is given, the exact number is not on record here.

Chain of αvβ1 (P06756 31-992 limits assumed): as the sequence (P06756 31-992 limits assumed) above
Chain of αvβ1 (P05556 21-728 limits assumed): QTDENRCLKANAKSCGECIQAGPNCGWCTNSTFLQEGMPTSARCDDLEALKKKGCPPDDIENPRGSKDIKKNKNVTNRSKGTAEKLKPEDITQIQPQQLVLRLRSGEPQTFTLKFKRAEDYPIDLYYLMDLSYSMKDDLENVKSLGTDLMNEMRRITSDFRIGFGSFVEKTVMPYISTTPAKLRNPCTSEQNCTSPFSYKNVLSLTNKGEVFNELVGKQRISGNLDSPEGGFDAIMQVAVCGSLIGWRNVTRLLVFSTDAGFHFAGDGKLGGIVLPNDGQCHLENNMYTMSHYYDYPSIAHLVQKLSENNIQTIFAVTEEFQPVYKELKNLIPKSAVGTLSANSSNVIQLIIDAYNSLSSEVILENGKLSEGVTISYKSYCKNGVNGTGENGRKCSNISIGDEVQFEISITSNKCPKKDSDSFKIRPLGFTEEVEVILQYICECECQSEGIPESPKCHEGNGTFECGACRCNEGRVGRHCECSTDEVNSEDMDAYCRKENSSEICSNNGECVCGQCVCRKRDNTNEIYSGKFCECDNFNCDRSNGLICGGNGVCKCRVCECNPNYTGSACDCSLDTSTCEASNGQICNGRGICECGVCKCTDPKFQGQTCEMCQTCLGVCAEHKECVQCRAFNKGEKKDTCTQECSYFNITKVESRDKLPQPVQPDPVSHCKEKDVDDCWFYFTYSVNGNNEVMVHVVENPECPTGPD

Regarding `O=C(O)C[C@H](CO[C@@H]1CCCN(CCCc2ccc3c(n2)NCCC3)C1)c1cccc(-n2cccn2)c1` [Compound 492], the negative logarithm of the IC50 (pIC50) at αvβ1 and against αvβ6 was more than 7.00 each time.

For the compound `O=C(O)C[C@H](CO[C@@H]1CCCN(CCCc2ccc3c(n2)NCCC3)C1)c1cccc([C@H]2CCOC2)c1` [Compound 493], the pIC50 on αvβ1 and against αvβ6 was 6.00 to 7.00 throughout.

Regarding `O=C(N[C@H](CCO[C@@H]1CCCN(CCCc2ccc3c(n2)NCCC3)C1)C(=O)O)c1c(F)cc(N2CCOC[C@@H]2C(F)(F)F)cc1F` [Compound 494], the negative logarithm of the IC50 (pIC50) on αvβ1 and at αvβ6 was less than 6.00 each time.

On to `O=C(O)[C@@H](CCO[C@@H]1CCCN(CCCc2ccc3c(n2)NCCC3)C1)NC(=O)[C@@H]1CCCN1S(=O)(=O)c1ccccc1` [Compound 495], for which the pIC50 against αvβ1 was more than 7.00; at αvβ6, less than 6.00.

For `O=C(N[C@H](CCO[C@@H]1CCCN(CCCc2ccc3c(n2)NCCC3)C1)C(=O)O)c1cc(Cl)cc(Cl)c1` [Compound 496], the negative-log IC50 (pIC50) on αvβ1 was less than 6.00; at αvβ6, 6.00 to 7.00.

Take `O=C(O)[C@@H](CCO[C@@H]1CCCN(CCCc2ccc3c(n2)NCCC3)C1)Nc1ncnc2cc(C(F)(F)F)ccc12` [Compound 497]: the negative-log IC50 (pIC50) at αvβ1 was 6.00 to 7.00; against αvβ6 it was more than 7.00.

As for `O=C(O)[C@@H](CCO[C@@H]1CCCN(CCCc2ccc3c(n2)NCCC3)C1)Nc1ncnc2sccc12` [Compound 498], the pIC50 on αvβ1 and on αvβ6 was more than 7.00 throughout.

Turning to `O=C(O)[C@H](CCO[C@@H]1CCCN(CCCc2ccc3c(n2)NCCC3)C1)c1ccc(F)c(-c2ccccc2)c1` [Compound 499], the values for the pIC50 against αvβ1 and on αvβ6 were less than 6.00 and more than 7.00, respectively.

On to `O=C(O)[C@H](CCO[C@@H]1CCCN(CCCc2ccc3c(n2)NCCC3)C1)c1cccc2c1cnn2CC1CC1` [Compound 500], for which the pIC50 against αvβ1 is less than 6.00; on αvβ6, 6.00 to 7.00.

Regarding `O=C(O)[C@H](CCO[C@@H]1CCCN(CCCc2ccc3c(n2)NCCC3)C1)c1cccc2nn(CC3CC3)cc12` [Compound 501], the pIC50 against αvβ1 is less than 6.00; against αvβ6 it was 6.00 to 7.00.

In the case of `Cc1csc2ncnc(N[C@H](CCO[C@@H]3CCCN(CCCc4ccc5c(n4)NCCC5)C3)C(=O)O)c12` [Compound 502], the pIC50 against αvβ1 and against αvβ6 was more than 7.00 throughout.

As for `O=C(O)[C@@H](CCO[C@@H]1CCCN(CCCc2ccc3c(n2)NCCC3)C1)Nc1ncnc2cc(F)c(F)cc12` [Compound 503], the pIC50 was less than 6.00 against αvβ1 and 6.00 to 7.00 against αvβ6.

For `O=C(O)C[C@@H](CO[C@@H]1CCCN(CCCc2ccc3c(n2)NCCC3)C1)c1cccc(N2CCCC2=O)c1` [Compound 504], the pIC50 against αvβ1 and against αvβ6 was more than 7.00 throughout.

Take `O=C(O)C(CCO[C@@H]1CCCN(CCCc2ccc3c(n2)NCCC3)C1)c1ccnc(-c2ccccc2)c1` (stereo partly shown) [Compound 505]: the negative-log IC50 (pIC50) at αvβ1 and at αvβ6 was less than 6.00 in each case.

On to `O=C(O)C[C@@H](CO[C@@H]1CCCN(CCCc2ccc3c(n2)NCCC3)C1)c1cccc([C@@H]2CCOC2)c1` [Compound 506], for which the pIC50 at αvβ1 and on αvβ6 was more than 7.00 in each case.

On to `O=C(O)C[C@@H](CO[C@@H]1CCCN(CCCc2ccc3c(n2)NCCC3)C1)c1cccc([C@H]2CCOC2)c1` [Compound 507], for which the pIC50 at αvβ1 and on αvβ6 was more than 7.00 throughout.

On to `O=C(O)C[C@@H](CO[C@@H]1CCCN(CCCc2ccc3c(n2)NCCC3)C1)c1cc(C2CC2)ccc1F` [Compound 508], for which the pIC50 on αvβ1 and against αvβ6 was more than 7.00 throughout.

As for `Cc1c[s+]([O-])c2ncnc(N[C@@H](CCO[C@@H]3CCCN(CCCc4ccc5c(n4)NCCC5)C3)C(=O)O)c12` (stereo partly shown) [Compound 509], the negative logarithm of the IC50 (pIC50) against αvβ1 and against αvβ6 was more than 7.00 each time.

In the case of `Cc1c[s+]([O-])c2ncnc(N[C@H](CCO[C@@H]3CCCN(CCCc4ccc5c(n4)NCCC5)C3)C(=O)O)c12` (stereo partly shown) [Compound 510], the pIC50 against αvβ1 and at αvβ6 was less than 6.00 throughout.

Consider `O=C(O)[C@@H](CCO[C@@H]1CCCN(CCCc2ccc3c(n2)NCCC3)C1)Nc1ncnc2ccsc12` [Compound 511], for which the pIC50 against αvβ1 and against αvβ6 was more than 7.00 throughout.

For the compound `O=C(N[C@H](CCO[C@@H]1CCCN(CCCc2ccc3c(n2)NCCC3)C1)C(=O)O)c1c(F)cc(N2CCOCC2)cc1F` [Compound 512], the pIC50 at αvβ1 and against αvβ6 was less than 6.00 in each case.

As for `O=C(O)C[C@@H](CO[C@@H]1CCCN(CCCc2ccc3c(n2)NCCC3)C1)c1cncc(C2CC2)c1` [Compound 513], the pIC50 at αvβ1 and against αvβ6 was more than 7.00 each time.

For the compound `O=C(O)C[C@@H](CO[C@@H]1CCCN(CCCc2ccc3c(n2)NCCC3)C1)c1ccnc(C2CC2)c1` [Compound 514], the pIC50 at αvβ1 and against αvβ6 was more than 7.00 throughout.

For the compound `O=C(O)C[C@@H](CO[C@@H]1CCCN(CCCc2ccc3c(n2)NCCC3)C1)c1cccc(-n2cccn2)c1` [Compound 515], the negative logarithm of the IC50 (pIC50) against αvβ1 is 6.00 to 7.00; on αvβ6 it was more than 7.00.

On to `O=C(O)[C@H](CCO[C@@H]1CCCN(CCCc2ccc3c(n2)NCCC3)C1)c1ccc(C2CC2)cc1` [Compound 516], for which the pIC50 at αvβ1 and against αvβ6 was more than 7.00 each time.

As to `O=C(NC[C@H](C(=O)O)c1cccc(-c2ccncc2)c1)[C@@H]1CCCN(CCCc2ccc3c(n2)NCCC3)C1` [Compound 517], the pIC50 on αvβ1 and against αvβ6 was more than 7.00 each time.

Consider `O=C(NC[C@H](C(=O)O)c1cccc(-c2cccc(C(F)(F)F)c2)c1)[C@@H]1CCCN(CCCc2ccc3c(n2)NCCC3)C1` [Compound 518], for which the pIC50 at αvβ1 and against αvβ6 was more than 7.00 each time.

For the compound `O=C(O)C[C@@H](CO[C@@H]1CCCN(CCCc2ccc3c(n2)NCCC3)C1)c1cc(F)cc(C2CC2)c1` [Compound 519], the negative logarithm of the IC50 (pIC50) against αvβ1 and against αvβ6 was more than 7.00 throughout.

`O=C(O)CC(CC(=O)N[C@H]1CCN(C(=O)CCCc2ccc3c(n2)NCCC3)C1)c1ccccc1` (stereo partly shown) [Compound 520]: the pIC50 on αvβ1 was more than 7.00; against αvβ6, 6.00 to 7.00.

Turning to `O=C(O)C[C@@H](CC(=O)N[C@H]1CCN(C(=O)CCCc2ccc3c(n2)NCCC3)C1)c1ccccc1` [Compound 521], the pIC50 on αvβ1 is more than 7.00; against αvβ6 it was 6.00 to 7.00.

Take `O=C(O)C[C@H](CC(=O)N[C@H]1CCN(C(=O)CCCc2ccc3c(n2)NCCC3)C1)c1ccccc1` [Compound 522]: the results for the pIC50 at αvβ1 and against αvβ6 were more than 7.00 and 6.00 to 7.00, respectively.

`O=C(O)C[C@H](NC(=O)[C@H]1CCCN(CCCc2ccc3c(n2)NCCC3)C1)c1ccccc1` [Compound 523]: the results for the pIC50 against αvβ1 and at αvβ6 were 6.00 to 7.00 and more than 7.00, respectively.

For `O=C(O)CC(CC(=O)N[C@@H]1CCN(C(=O)CCCc2ccc3c(n2)NCCC3)C1)c1ccccc1` (stereo partly shown) [Compound 524], the figures for the pIC50 on αvβ1 and on αvβ6 were more than 7.00 and 6.00 to 7.00, respectively.

Consider `O=C(O)CC(CC(=O)N[C@H]1CCN(CCCCc2ccc3c(n2)NCCC3)C1)c1ccccc1` (stereo partly shown) [Compound 525], for which the figures for the pIC50 on αvβ1 and on αvβ6 were more than 7.00 and 6.00 to 7.00, respectively.

Regarding `CN(CC1(C)CCCCC1)[C@@H](CNC(=O)[C@@H]1CCCN(CCCc2ccc3c(n2)NCCC3)C1)C(=O)O` [Compound 527], the pIC50 against αvβ1 and against αvβ6 was 6.00 to 7.00 each time.

For the compound `O=C(O)C[C@H](OC[C@@H]1CCCN(CCCc2ccc3c(n2)NCCC3)C1)c1cccc(C2CC2)c1` [Compound 528], the pIC50 on αvβ1 and against αvβ6 was less than 6.00 each time.

As to `O=C(O)C[C@H](NC[C@@H]1CCCN(CCCc2ccc3c(n2)NCCC3)C1)c1cccc(C2CC2)c1` [Compound 529], the pIC50 at αvβ1 and at αvβ6 was 6.00 to 7.00 throughout.

For `CN(C[C@@H]1CCCN(CCCc2ccc3c(n2)NCCC3)C1)[C@@H](CC(=O)O)c1cccc(C2CC2)c1` [Compound 530], the pIC50 against αvβ1 and against αvβ6 was less than 6.00 each time.

On to `O=C(O)C[C@H](NC[C@@H]1CCCN(CCCc2ccc3c(n2)NCCC3)C1)c1cccc(Br)c1` [Compound 531], for which the pIC50 at αvβ1 and against αvβ6 was less than 6.00 in each case.

As for `CN(C[C@@H]1CCCN(CCCc2ccc3c(n2)NCCC3)C1)[C@@H](CC(=O)O)c1cccc(Br)c1` [Compound 532], the pIC50 against αvβ1 and against αvβ6 was less than 6.00 throughout.

In the case of `O=C(O)C[C@H](NC(=O)[C@@H]1CCCN(CCCc2ccc3c(n2)NCCC3)C1)c1cccc([C@@H]2CCOC2)c1` [Compound 533], the pIC50 at αvβ1 and against αvβ6 was more than 7.00 each time.

Take `O=C(O)C[C@H](NC(=O)[C@@H]1CCCN(CCCc2ccc3c(n2)NCCC3)C1)c1cccc([C@H]2CCOC2)c1` [Compound 534]: the pIC50 against αvβ1 and against αvβ6 was more than 7.00 in each case.

Take `O=C(O)C[C@H](NC(=O)[C@@H]1CCCN(CCCc2ccc3c(n2)NCCC3)C1)c1cccc(OC2COC2)c1` [Compound 535]: the pIC50 against αvβ1 and against αvβ6 was more than 7.00 each time.

`O=C(O)C[C@H](NC(=O)[C@@H]1CCCN(CCCc2ccc3c(n2)NCCC3)C1)c1cccc(-n2cccc2)c1` [Compound 536]: the pIC50 against αvβ1 and against αvβ6 was more than 7.00 in each case.

Consider `COC(C)(C)C1Cc2c(cccc2C(CNC(=O)[C@@H]2CCCN(CCCc3ccc4c(n3)NCCC4)C2)C(=O)O)CO1` (stereo partly shown) [Compound 538], for which the pIC50 at αvβ1 and on αvβ6 was more than 7.00 throughout.

Consider `O=C(O)C[C@H](NC(=O)[C@@H]1CCCN(CCCc2ccc3c(n2)NCCC3)C1)c1cnc2ccccc2n1` [Compound 539], for which the pIC50 at αvβ1 and on αvβ6 was more than 7.00 in each case.

Take `O=C(O)C[C@H](NC(=O)[C@@H]1CCCN(CCCc2ccc3c(n2)NCCC3)C1)c1cnc2ccccc2c1` [Compound 540]: the pIC50 against αvβ1 and at αvβ6 was 6.00 to 7.00 in each case.
